Experimental data as given in ChEMBL document CHEMBL2203238, “Hit to Lead optimization of a novel class of squarate-containing polo-like kinases inhibitors” (Bioorg Med Chem Lett, 2012).

Legend:
[1] = Half life in mouse, iv; assay type: ADME, organism-based; settings: in vivo
[2] = target: Casein kinase I isoform delta (Homo sapiens, UniProt P48730); test: Inhibition of recombinant CK1delta after 1 hr by scintillation counter analysis in presence of gamma-[33P]ATP
[3] = target: Serine/threonine-protein kinase PAK 1 (Homo sapiens, UniProt Q13153); test: Inhibition of recombinant PAK1 after 1 hr by scintillation counter analysis in presence of gamma-[33P]ATP
[4] = target: Receptor tyrosine-protein kinase erbB-2 (Homo sapiens, UniProt P04626); test: Inhibition of recombinant ERBB2 after 1 hr by scintillation counter analysis in presence of gamma-[33P]ATP
LIM domain kinase 1 = LIM domain kinase 1 (Homo sapiens, UniProt P53667); test: Inhibition of recombinant LIMK1 after 1 hr by scintillation counter analysis in presence of gamma-[33P]ATP
[5] = target: Mitogen-activated protein kinase 9 (Homo sapiens, UniProt P45984); test: Inhibition of recombinant JNK2A2 after 1 hr by scintillation counter analysis in presence of gamma-[33P]ATP
[6] = target: Tyrosine-protein kinase JAK3 (Homo sapiens, UniProt P52333); test: Inhibition of recombinant JAK3 after 1 hr by scintillation counter analysis in presence of gamma-[33P]ATP
[7] = Cmax in mouse at 50 mg/kg, po measured at 8 hrs; assay type: ADME, organism-based; design: dose 50 mg/kg, route oral; settings: in vivo
[8] = target: Receptor tyrosine-protein kinase erbB-4 (Homo sapiens, UniProt Q15303); test: Inhibition of recombinant ERBB4 after 1 hr by scintillation counter analysis in presence of gamma-[33P]ATP
[9] = target: Tyrosine-protein kinase Blk (Homo sapiens, UniProt P51451); test: Inhibition of recombinant BLK after 1 hr by scintillation counter analysis in presence of gamma-[33P]ATP
[10] = target: Mitogen-activated protein kinase 8 (Homo sapiens, UniProt P45983); test: Inhibition of recombinant JNK1A1 after 1 hr by scintillation counter analysis in presence of gamma-[33P]ATP
[11] = target: Glycogen synthase kinase-3 beta (Homo sapiens, UniProt P49841); test: Inhibition of recombinant GSK3B after 1 hr by scintillation counter analysis in presence of gamma-[33P]ATP
[12] = target: Serine/threonine-protein kinase pim-1 (Homo sapiens, UniProt P11309); test: Inhibition of recombinant PIM1 after 1 hr by scintillation counter analysis in presence of gamma-[33P]ATP
[13] = target: Insulin-like growth factor 1 receptor (Homo sapiens, UniProt P08069); test: Inhibition of recombinant IGF1R after 1 hr by scintillation counter analysis in presence of gamma-[33P]ATP
[14] = target: Dual specificity tyrosine-phosphorylation-regulated kinase 1A (Homo sapiens, UniProt Q13627); test: Inhibition of recombinant DYRK1A after 1 hr by scintillation counter analysis in presence of gamma-[33P]ATP
[15] = target: Serine/threonine-protein kinase Sgk1 (Homo sapiens, UniProt O00141); test: Inhibition of recombinant SGK after 1 hr by scintillation counter analysis in presence of gamma-[33P]ATP
[16] = target: Tyrosine-protein kinase JAK2 (Homo sapiens, UniProt O60674); test: Inhibition of recombinant JAK2 after 1 hr by scintillation counter analysis in presence of gamma-[33P]ATP
[17] = target: Cyclin-dependent kinase 5 (Homo sapiens, UniProt Q00535); test: Inhibition of recombinant CDK5 after 1 hr by scintillation counter analysis in presence of gamma-[33P]ATP
[18] = target: RAC-gamma serine/threonine-protein kinase (Homo sapiens, UniProt Q9Y243); test: Inhibition of recombinant AKT3 after 1 hr by scintillation counter analysis in presence of gamma-[33P]ATP
[19] = target: Tyrosine-protein kinase Fyn (Homo sapiens, UniProt P06241); test: Inhibition of recombinant FYN after 1 hr by scintillation counter analysis in presence of gamma-[33P]ATP
[20] = target: Rho-associated protein kinase 2 (Homo sapiens, UniProt O75116); test: Inhibition of recombinant ROCK2 after 1 hr by scintillation counter analysis in presence of gamma-[33P]ATP
Ephrin type-A receptor 2 = Ephrin type-A receptor 2 (Homo sapiens, UniProt P29317); test: Inhibition of recombinant EPHA2 after 1 hr by scintillation counter analysis in presence of gamma-[33P]ATP
MIA PaCa-2 = test: Antitumor activity against human MIAPaCa2 cells xenografted in SCID mouse assessed as tumor growth inhibition at 100 mg/kg/day, po measured on day 35 relative to vehicle-treated control; assay type: functional; settings: MIA PaCa-2, 840 h, read-out: TGI
[21] = target: Serine/threonine-protein kinase PLK3 (Homo sapiens, UniProt Q9H4B4); test: Inhibition of recombinant PLK3 after 1 hr by scintillation counter analysis in presence of gamma-[33P]ATP
[22] = target: Protein kinase C delta type (Homo sapiens, UniProt Q05655); test: Inhibition of recombinant PKCdelta after 1 hr by scintillation counter analysis in presence of gamma-[33P]ATP
[23] = target: Fibroblast growth factor receptor 3 (Homo sapiens, UniProt P22607); test: Inhibition of recombinant FGFR3 after 1 hr by scintillation counter analysis in presence of gamma-[33P]ATP
[24] = target: Macrophage colony-stimulating factor 1 receptor (Homo sapiens, UniProt P07333); test: Inhibition of recombinant CSF1R after 1 hr by scintillation counter analysis in presence of gamma-[33P]ATP
[25] = target: Serine/threonine-protein kinase PLK1 (Homo sapiens, UniProt P53350); test: Inhibition of recombinant GST-tagged PLK1 using biotin-ahx-AKMETTFYDDALNASFLPSEKKK-amide as substrate after 30 mins by scintillation counting analysis in presence of gamma-[33P]ATP

Serine/threonine-protein kinase PLK3, sequence (Q9H4B4 whole entry): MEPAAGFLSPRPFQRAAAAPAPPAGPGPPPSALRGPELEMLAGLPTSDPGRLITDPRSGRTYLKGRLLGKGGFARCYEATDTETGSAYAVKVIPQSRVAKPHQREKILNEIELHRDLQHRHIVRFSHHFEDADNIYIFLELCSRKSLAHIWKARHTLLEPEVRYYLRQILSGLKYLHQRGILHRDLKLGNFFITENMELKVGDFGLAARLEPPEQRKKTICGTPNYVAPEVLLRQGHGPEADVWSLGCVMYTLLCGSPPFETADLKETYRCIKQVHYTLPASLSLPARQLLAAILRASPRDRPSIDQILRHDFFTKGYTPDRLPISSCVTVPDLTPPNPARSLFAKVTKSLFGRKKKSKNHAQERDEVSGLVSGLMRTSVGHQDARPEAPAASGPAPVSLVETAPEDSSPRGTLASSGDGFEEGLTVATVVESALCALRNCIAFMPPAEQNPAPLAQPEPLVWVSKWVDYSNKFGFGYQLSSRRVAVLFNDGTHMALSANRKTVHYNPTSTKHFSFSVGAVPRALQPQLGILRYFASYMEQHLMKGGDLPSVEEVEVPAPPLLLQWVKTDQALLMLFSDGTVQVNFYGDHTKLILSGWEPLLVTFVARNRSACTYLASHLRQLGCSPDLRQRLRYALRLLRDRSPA
Insulin-like growth factor 1 receptor, sequence (P08069 31-736 limits assumed): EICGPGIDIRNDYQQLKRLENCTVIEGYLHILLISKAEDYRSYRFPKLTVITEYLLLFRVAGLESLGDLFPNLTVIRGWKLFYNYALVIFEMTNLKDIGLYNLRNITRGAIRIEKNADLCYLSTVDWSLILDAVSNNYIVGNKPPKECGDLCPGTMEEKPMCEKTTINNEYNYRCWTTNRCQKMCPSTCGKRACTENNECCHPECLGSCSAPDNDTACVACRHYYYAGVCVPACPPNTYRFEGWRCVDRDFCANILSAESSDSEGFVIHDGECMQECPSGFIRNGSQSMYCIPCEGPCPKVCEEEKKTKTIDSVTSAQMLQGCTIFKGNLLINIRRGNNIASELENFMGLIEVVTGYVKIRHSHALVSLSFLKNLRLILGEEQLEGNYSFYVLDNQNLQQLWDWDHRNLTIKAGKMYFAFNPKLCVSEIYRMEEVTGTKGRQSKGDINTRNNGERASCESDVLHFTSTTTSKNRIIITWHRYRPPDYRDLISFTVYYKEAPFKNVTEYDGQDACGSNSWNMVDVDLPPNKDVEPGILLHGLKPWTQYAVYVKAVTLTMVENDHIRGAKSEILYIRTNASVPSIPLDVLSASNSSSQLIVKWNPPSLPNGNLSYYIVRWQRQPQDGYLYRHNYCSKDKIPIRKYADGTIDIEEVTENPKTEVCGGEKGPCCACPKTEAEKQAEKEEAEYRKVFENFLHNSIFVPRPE
Insulin-like growth factor 1 receptor, sequence (P08069 741-1367 limits assumed): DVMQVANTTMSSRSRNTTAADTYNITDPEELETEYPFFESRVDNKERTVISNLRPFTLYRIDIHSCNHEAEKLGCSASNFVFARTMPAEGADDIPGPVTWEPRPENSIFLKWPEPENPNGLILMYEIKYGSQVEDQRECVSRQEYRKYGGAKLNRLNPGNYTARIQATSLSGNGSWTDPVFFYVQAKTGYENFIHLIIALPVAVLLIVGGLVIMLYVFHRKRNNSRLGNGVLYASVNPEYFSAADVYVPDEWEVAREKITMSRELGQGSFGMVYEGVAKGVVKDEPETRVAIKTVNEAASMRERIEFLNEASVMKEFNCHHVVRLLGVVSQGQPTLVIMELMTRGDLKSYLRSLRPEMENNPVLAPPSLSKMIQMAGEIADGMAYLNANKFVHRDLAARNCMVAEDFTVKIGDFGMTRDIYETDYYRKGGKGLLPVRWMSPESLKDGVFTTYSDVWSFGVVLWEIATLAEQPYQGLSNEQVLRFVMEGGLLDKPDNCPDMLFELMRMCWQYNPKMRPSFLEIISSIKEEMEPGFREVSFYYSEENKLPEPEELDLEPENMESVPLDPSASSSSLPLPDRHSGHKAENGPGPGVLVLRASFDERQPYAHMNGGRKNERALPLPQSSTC
Rho-associated protein kinase 2, sequence (O75116 whole entry): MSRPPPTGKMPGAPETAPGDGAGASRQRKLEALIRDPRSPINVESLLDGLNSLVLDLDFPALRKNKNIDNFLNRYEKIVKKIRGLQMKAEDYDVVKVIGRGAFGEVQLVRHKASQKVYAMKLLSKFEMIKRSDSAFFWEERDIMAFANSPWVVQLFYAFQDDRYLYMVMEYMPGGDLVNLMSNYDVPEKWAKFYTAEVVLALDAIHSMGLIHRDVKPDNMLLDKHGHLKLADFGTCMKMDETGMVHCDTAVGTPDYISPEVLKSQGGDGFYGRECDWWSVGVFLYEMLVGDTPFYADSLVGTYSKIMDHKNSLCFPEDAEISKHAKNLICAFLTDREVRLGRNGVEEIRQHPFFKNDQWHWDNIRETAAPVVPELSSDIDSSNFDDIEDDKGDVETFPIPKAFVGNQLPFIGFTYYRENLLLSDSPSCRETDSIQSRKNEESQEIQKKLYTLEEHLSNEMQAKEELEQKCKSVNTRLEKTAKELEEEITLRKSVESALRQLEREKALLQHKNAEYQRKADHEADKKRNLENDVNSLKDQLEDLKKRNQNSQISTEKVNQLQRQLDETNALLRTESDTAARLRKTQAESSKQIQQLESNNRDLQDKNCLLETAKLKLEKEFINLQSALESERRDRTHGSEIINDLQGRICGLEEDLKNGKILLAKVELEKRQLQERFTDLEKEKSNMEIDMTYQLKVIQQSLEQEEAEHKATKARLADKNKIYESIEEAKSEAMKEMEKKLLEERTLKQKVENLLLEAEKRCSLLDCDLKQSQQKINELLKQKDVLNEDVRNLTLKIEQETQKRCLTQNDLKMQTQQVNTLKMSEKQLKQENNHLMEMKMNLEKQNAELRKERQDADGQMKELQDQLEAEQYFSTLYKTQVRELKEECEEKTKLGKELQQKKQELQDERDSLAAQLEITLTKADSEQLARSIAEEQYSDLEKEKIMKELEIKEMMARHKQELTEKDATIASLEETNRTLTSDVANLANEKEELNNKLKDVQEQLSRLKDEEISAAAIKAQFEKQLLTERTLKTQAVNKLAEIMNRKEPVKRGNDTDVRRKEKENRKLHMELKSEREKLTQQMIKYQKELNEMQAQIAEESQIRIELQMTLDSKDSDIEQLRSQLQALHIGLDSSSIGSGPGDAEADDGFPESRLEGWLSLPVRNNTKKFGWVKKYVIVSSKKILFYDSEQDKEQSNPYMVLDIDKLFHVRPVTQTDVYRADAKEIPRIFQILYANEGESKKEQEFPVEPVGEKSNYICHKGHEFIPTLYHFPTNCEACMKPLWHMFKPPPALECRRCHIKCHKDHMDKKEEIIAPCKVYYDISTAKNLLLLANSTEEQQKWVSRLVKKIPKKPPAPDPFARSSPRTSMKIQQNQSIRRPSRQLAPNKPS
RAC-gamma serine/threonine-protein kinase, sequence (Q9Y243 whole entry): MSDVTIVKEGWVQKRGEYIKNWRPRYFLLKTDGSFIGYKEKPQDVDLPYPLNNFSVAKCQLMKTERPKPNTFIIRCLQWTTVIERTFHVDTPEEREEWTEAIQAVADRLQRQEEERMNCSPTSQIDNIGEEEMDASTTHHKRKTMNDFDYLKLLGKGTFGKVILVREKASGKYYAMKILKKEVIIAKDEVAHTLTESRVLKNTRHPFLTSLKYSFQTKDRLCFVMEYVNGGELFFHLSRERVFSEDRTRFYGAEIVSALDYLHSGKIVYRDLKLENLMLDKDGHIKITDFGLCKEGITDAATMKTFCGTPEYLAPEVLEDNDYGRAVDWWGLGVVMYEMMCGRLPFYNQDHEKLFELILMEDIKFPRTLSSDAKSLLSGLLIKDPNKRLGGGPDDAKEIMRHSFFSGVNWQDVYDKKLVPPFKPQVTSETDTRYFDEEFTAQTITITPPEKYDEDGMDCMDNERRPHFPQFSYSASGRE
Cyclin-dependent kinase 5, sequence (Q00535 whole entry): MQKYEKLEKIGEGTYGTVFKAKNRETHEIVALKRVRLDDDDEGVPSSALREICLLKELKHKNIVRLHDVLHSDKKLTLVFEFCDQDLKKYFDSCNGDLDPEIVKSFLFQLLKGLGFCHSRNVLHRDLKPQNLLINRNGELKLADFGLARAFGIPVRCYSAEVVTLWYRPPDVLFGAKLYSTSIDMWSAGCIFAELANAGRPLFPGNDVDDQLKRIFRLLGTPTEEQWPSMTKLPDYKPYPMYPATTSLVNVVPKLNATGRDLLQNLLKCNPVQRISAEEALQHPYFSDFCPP
Serine/threonine-protein kinase Sgk1, sequence (O00141 whole entry): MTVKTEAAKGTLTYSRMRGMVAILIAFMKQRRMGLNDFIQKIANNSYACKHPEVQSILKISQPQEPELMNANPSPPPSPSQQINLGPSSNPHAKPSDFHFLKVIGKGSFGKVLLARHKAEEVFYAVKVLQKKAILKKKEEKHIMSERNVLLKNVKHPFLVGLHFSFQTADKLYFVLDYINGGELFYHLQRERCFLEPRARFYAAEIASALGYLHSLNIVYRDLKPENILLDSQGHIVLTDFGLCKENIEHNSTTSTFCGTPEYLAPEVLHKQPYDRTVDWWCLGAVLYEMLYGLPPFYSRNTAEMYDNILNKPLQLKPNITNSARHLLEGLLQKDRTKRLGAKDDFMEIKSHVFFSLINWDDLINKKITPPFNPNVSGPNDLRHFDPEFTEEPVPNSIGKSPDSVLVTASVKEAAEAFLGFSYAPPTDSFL
Mitogen-activated protein kinase 8, sequence (P45983 whole entry): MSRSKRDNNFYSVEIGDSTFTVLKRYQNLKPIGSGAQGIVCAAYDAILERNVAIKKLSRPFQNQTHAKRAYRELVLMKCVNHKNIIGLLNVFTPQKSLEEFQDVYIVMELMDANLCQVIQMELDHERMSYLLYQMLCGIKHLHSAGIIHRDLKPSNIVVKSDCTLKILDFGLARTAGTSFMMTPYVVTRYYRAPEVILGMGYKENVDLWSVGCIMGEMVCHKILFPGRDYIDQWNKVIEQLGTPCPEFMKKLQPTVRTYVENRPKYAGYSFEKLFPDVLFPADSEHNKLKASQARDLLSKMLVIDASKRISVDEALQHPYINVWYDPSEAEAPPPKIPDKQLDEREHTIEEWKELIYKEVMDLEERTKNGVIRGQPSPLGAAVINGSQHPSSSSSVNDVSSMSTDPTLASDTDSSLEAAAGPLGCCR

In the case of `CC(C)(C)Nc1c(Nc2ccnc(Nc3ccc(-c4ccncc4)cc3)n2)c(=O)c1=O`, the half-life [1] is reported as 20.4 min, the Ki [2] is reported as > 7.8 µM and the Ki [3] is reported as > 9.7 µM. For the same molecule, the Ki [4] was > 1.4 µM, the Ki (LIM domain kinase 1) was 0.194 µM and the Ki [5] was 0.262 µM. The Ki [6] was > 1.7 µM, the Cmax [7] was 3.3 µM and the Ki [8] was > 3.7 µM. The Ki [9] was > 1.4 µM, the Ki [10] was > 3 µM and the Ki [11] was 0.102 µM. The Ki [12] was 1.6 µM, the Ki [13] was > 1.8 µM and the Ki [14] was > 6.8 µM. The Ki [15] was 0.26 µM, the Ki [16] was 0.92 µM and the Ki [17] was 0.416 µM. For the same molecule, the Ki [18] was > 9 µM, the Ki [19] was 0.328 µM and the Ki [20] was 0.43 µM. The Ki (Ephrin type-A receptor 2) was > 2.8 µM, the inhibition in vivo at 100 mg/kg/day (MIA PaCa-2) was 38% and the Ki [21] was 0.002 µM. The Ki [22] was 0.0079 µM, the Ki [23] was 1.4 µM and the Ki [24] was 2.1 µM. For the same molecule, the Ki [25] was 0.005 µM.
